In patent US12479827B2, “Heteroaromatic carboxamide derivatives as plasma kallikrein inhibitors” (Boehringer Ingelheim International GmbH, priority 2020, dated 2025):

Target: T1, Human PKK (Homo sapiens, UniProt P03952)
T1 construct: purchased Enzyme Research Laboratories
Experiment: Inhibition of PKK using an endpoint assay (human PKK)
Format: biochemical
Conditions: fluorogenic substrate H-Pro-Phe-Arg-AMC, 1 h room temperature, method names human or rat PKK, table does not say which
Method: The ability of compounds of formula (I) to inhibit plasma kallikrein (PKK), Factor XIIa (FXIIa), Factor XIa (FXIa), Factor Xa (FXa), Factor IIa (alpha-thrombin; FIIa), plasmin, trypsin, tissue kallikrein 1 (TK1), Factor VIIa (FVIIa), or FVIIa complexed with Tissue Factor, phospholipids and CaCl2 (FVIIa/TF/PL/CaCl2) is determined using the following biochemical assays in assay buffer (100 mM Tris, 150 mM NaCL, adjusted to a pH of 7.8 with HCl, and containing 0.1% (w/v) BSA and 0.05% (v/v) Tween20) in the presence of 1% (v/v) DMSO:
Subsequently, PPACK II (Calbiochem) is added as a stop solution to achieve a final concentration of 1 μM and fluorescence is measured using an Envision Reader (PerkinElmer) with the wavelength excitation setting of 355 nm and the wavelength emission setting of 460 nm.

T1 sequence (P03952 20-390 limits assumed): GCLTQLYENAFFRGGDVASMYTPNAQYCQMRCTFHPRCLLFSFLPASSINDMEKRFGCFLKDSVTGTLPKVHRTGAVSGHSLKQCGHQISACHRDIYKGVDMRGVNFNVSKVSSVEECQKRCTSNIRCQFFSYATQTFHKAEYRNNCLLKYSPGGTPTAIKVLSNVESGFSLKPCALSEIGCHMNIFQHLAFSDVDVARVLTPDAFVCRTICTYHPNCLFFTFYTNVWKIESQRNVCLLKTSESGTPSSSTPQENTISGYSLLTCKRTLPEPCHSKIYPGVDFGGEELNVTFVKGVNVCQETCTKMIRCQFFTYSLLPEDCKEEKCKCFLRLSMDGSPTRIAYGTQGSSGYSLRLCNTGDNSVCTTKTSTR
T1 sequence (P03952 391-638 limits assumed): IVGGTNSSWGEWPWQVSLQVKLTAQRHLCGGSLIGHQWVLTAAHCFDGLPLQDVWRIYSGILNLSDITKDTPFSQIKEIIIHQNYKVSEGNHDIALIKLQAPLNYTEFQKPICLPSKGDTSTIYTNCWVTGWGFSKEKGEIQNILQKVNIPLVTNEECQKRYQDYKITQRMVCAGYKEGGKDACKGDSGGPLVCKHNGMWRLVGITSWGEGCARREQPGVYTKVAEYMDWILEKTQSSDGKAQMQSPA

SMILES	IC50 [nM]
Cn1cnc2c1CC[C@H]2NC(=O)c1cn(Cc2ccc(N3CC4C(C3)C4(F)F)cn2)nn1 (stereo partly drawn) [Example 138, 1-[(5-{6,6-Difluoro-3-azabicyclo[3.1.0]hexan-3-yl}pyridin-2-yl)methyl]-N-[(4R)-1-methyl-1H,4H,5H,6H-cyclopenta[d]imidazol-4-yl]-1H-1,2,3-triazole-4-carboxamide]	2.2
Cc1nc(N2CCC3(CC2)CC(C)(O)C3)ncc1Cn1cc(C(=O)N[C@@H]2CCc3c2ncn3C)cn1 [Example 223, 1-[(2-{2-Hydroxy-2-methyl-7-azaspiro[3.5]nonan-7-yl}-4-methylpyrimidin-5-yl)methyl]-N-[(4R)-1-methyl-1H,4H,5H,6H-cyclopenta[d]imidazol-4-yl]-1H-pyrazole-4-carboxamide]	7540
Cc1nc(N2CCCC3(CC3)C2)ncc1Cn1cc(C(=O)N[C@@H]2CCc3c2ncn3C)cn1 [Example 232, 1-[(2-{5-Azaspiro[2.5]octan-5-yl}-4-methylpyrimidin-5-yl)methyl]-N-[(4R)-1-methyl-1H,4H,5H,6H-cyclopenta[d]imidazol-4-yl]-1H-pyrazole-4-carboxamide]	512
Cc1nc(N2CCC3(CC2)CC3)ncc1Cn1cc(C(=O)N[C@@H]2CCc3c2ncn3C)cn1 [Example 237, 1-[(2-{6-Azaspiro[2.5]octan-6-yl}-4-methylpyrimidin-5-yl)methyl]-N-[(4R)-1-methyl-1H,4H,5H,6H-cyclopenta[d]imidazol-4-yl]-1H-pyrazole-4-carboxamide]	111
CCc1nc(N2CC3CC3C2)ccc1Cc1ccc(C(=O)N[C@@H]2CCc3c2ncn3C)s1 (stereo partly drawn) [Example 183, 5-[(6-{3-Azabicyclo[3.1.0]hexan-3-yl}-2-ethylpyridin-3-yl)methyl]-N-[(4R)-1-methyl-1H,4H,5H,6H-cyclopenta[d]imidazol-4-yl]thiophene-2-carboxamide]	19.4
Cn1cnc2c1CC[C@H]2NC(=O)c1cn(Cc2ccc(N3CC4C(C3)C4(F)F)nc2)c(Cl)n1 (stereo partly drawn) [Example 176, 2-Chloro-1-[(6-{6,6-difluoro-3-azabicyclo-[3.1.0]hexan-3-yl}pyridin-3-yl)methyl]-N-[(4R)-1-methyl-1H,4H,5H,6H-cyclopenta[d]imidazol-4-yl]-1H-imidazole-4-carboxamide]	4.2
Cc1nc(N2CC3(CC3)C2)ncc1Cn1cnc(C(=O)N[C@@H]2CCc3c2ncn3C)c1 [Example 172, 1-[(2-{5-Azaspiro[2.3]hexan-5-yl}-4-methylpyrimidin-5-yl)methyl]-N-[(4R)-1-methyl-1H,4H,5H,6H-cyclopenta[d]imidazol-4-yl]-1H-imidazole-4-carboxamide]	8.1
Cc1nc(N2CCC3(CC3)C2)ncc1Cn1cc(C(=O)N[C@@H]2CCc3c2ncn3C)cn1 [Example 230, 1-[(2-{5-Azaspiro[2.4]heptan-5-yl}-4-methylpyrimidin-5-yl)methyl]-N-[(4R)-1-methyl-1H,4H,5H,6H-cyclopenta[d]imidazol-4-yl]-1H-pyrazole-4-carboxamide]	53.7
Cn1cnc2c1CC[C@H]2NC(=O)c1cnn(Cc2ccc(N3CC4(CC4)C3)cn2)c1 [Example 19, 1-[(5-{5-Azaspiro[2.3]hexan-5-yl}pyridin-2-yl)-methyl]-N-[(4R)-1-methyl-1H,4H,5H,6H-cyclopenta[d]imidazol-4-yl]-1H-pyrazole-4-carboxamide]	14.2
Cc1nc(N2CC3C(C2)C3(F)F)ccc1Cc1ccc(C(=O)N[C@@H]2CCc3c2ncn3C)o1 (stereo partly drawn) [Example 189, 5-[(6-{6,6-Difluoro-3-azabicyclo[3.1.0]hexan-3-yl}-2-methylpyridin-3-yl)methyl]-N-[(4R)-1-methyl-1H,4H,5H,6H-cyclopenta[d]imidazol-4-yl]furan-2-carboxamide]	22.1
Cc1cc(N2CC3CC3C2)ccc1Cn1cnc(C(=O)N[C@@H]2CCc3c2ncn3C)c1 (stereo partly drawn) [Example 205, 1-[(4-{3-azabicyclo[3.1.0]hexan-3-yl}-2-methylphenyl)methyl]-N-[(4R)-1-methyl-1H,4H,5H,6H-cyclopenta[d]imidazol-4-yl]-1H-imidazole-4-carboxamide]	8.3
CC(C)Cc1nc(N2CC3CC3C2)ccc1Cn1cnc(C(=O)N[C@@H]2CCc3c2ncn3C)c1 (stereo partly drawn) [Example 100, 1-[(6-{3-Azabicyclo[3.1.0]hexan-3-yl}-2-(2-methylpropyl)pyridin-3-yl)methyl]-N-[(4R)-1-methyl-1H,4H,5H,6H-cyclopenta[d]imidazol-4-yl]-1H-imidazole-4-carboxamide]	5.6
CCc1nc(N2CC3(CC3)C2)ccc1Cc1cc(C(=O)N[C@@H]2CCc3c2ncn3C)on1 [Example 156, 3-[(6-{5-Azaspiro[2.3]hexan-5-yl}-2-ethylpyridin-3-yl)methyl]-N-[(4R)-1-methyl-1H,4H,5H,6H-cyclopenta[d]imidazol-4-yl]-1,2-oxazole-5-carboxamidef]	0.8
Cn1cnc2c1CC[C@H]2NC(=O)c1cnc(Cc2cc(F)c(N3CC4CC4C3)c(F)c2)[nH]1 (stereo partly drawn) [Example 192, 2-[(4-{3-azabicyclo[3.1.0]hexan-3-yl}-3,5-difluorophenyl)methyl]-N-[(4R)-1-methyl-1H,4H,5H,6H-cyclopenta[d]imidazol-4-yl]-1H-imidazole-4-carboxamide]	1890
Cn1cnc2c1CC[C@H]2NC(=O)c1cn(Cc2ccc(N3CC4CC4C3)nc2OC(F)(F)F)cn1 (stereo partly drawn) [Example 38, 1-[(6-{3-Azabicyclo[3.1.0]hexan-3-yl}-2-(trifluoromethoxy)-pyridin-3-yl)methyl]-N-[(4R)-1-methyl-1H,4H,5H,6H-cyclopenta[d]imidazol-4-yl]-1H-imidazole-4-carboxamide]	3.4

Continued, values first:

IC50 [nM]	SMILES
23.7	Cc1cc(Cn2cnc(C(=O)N[C@@H]3CCc4c3ncn4C)c2)c(C)nc1N1CC2CC2C1 (stereo partly drawn) [Example 129, 1-[(6-{3-Azabicyclo[3.1.0]hexan-3-yl}-2,5-dimethylpyridin-3-yl)methyl]-N-[(4R)-1-methyl-1H,4H,5H,6H-cyclopenta[d]imidazol-4-yl]-1H-imidazole-4-carboxamide]
123	Cc1nc(N2CC3CCCC3C2)ncc1Cn1cc(C(=O)N[C@@H]2CCc3c2ncn3C)cn1 (stereo partly drawn) [Example 239, N-[(4R)-1-Methyl-1H,4H,5H,6H-cyclopenta[d]imidazol-4-yl]-1-[(4-methyl-2-{octahydrocyclopenta[c]pyrrol-2-yl}pyrimidin-5-yl)methyl]-1H-pyrazole-4-carboxamide]
81.4	COC1C2CC1CN(c1ncc(Cn3cc(C(=O)N[C@@H]4CCc5c4ncn5C)cn3)c(C)n1)C2 (stereo partly drawn) [Example 233, 1-[(2-{6-Methoxy-3-azabicyclo[3.1.1]heptan-3-yl}-4-methylpyrimidin-5-yl)methyl]-N-[(4R)-1-methyl-1H,4H,5H,6H-cyclopenta[d]imidazol-4-yl]-1H-pyrazole-4-carboxamide]
2.5	Cn1cnc2c1CC[C@H]2NC(=O)c1cnn(Cc2ccc(N3CC4CC4C3)nc2OC(F)(F)F)c1 (stereo partly drawn) [Example 58, 1-[(6-{3-Azabicyclo[3.1.0]hexan-3-yl}-2-(trifluoromethoxy)-pyridin-3-yl)methyl]-N-[(4R)-1-methyl-1H,4H,5H,6H-cyclopenta[d]imidazol-4-yl]-1H-pyrazole-4-carboxamide]
350	CO[C@H]1[C@@H]2CC[C@H]1CN(c1ncc(Cn3cc(C(=O)N[C@@H]4CCc5c4ncn5C)cn3)c(C)n1)C2 [Example 234, 1-({2-[(1R,5S,8R)-8-Methoxy-3-azabicyclo[3.2.1]octan-3-yl]-4-methylpyrimidin-5-yl}methyl)-N-[(4R)-1-methyl-1H,4H,5H,6H-cyclopenta[d]imidazol-4-yl]-1H-pyrazole-4-carboxamide]
223	Cc1nc(N2CC3CC(C2)O3)ncc1Cn1cc(C(=O)N[C@@H]2CCc3c2ncn3C)cn1 [Example 231, N-[(4R)-1-Methyl-1H,4H,5H,6H-cyclopenta[d]imidazol-4-yl]-1-[(4-methyl-2-{6-oxa-3-azabicyclo[3.1.1]heptan-3-yl}pyrimidin-5-yl)methyl]-1H-pyrazole-4-carboxamide]
126	Cc1nc(N2CC3C(C2)C3(C)C)ncc1Cn1cc(C(=O)N[C@@H]2CCc3c2ncn3C)cn1 (stereo partly drawn) [Example 228, 1-[(2-{6,6-Dimethyl-3-azabicyclo[3.1.0]hexan-3-yl}-4-methylpyrimidin-5-yl)methyl]-N-[(4R)-1-methyl-1H,4H,5H,6H-cyclopenta[d]imidazol-4-yl]-1H-pyrazole-4-carboxamide]
169	Cn1cnc2c1CC[C@H]2NC(=O)c1cnn(Cc2cc(F)c(N3CC4CC4C3)c(F)c2)c1 (stereo partly drawn) [Example 191, 1-[(4-{3-Azabicyclo[3.1.0]hexan-3-yl}-3,5-difluorophenyl)methyl]-N-[(4R)-1-methyl-1H,4H,5H,6H-cyclopenta[d]imidazol-4-yl]-1H-pyrazole-4-carboxamide]
20	Cc1cc(Cn2cc(C(=O)N[C@@H]3CCc4c3ncn4C)cn2)c(C)nc1N1CC2CC2C1 (stereo partly drawn) [Example 130, 1-[(6-{3-Azabicyclo[3.1.0]hexan-3-yl}-2,5-dimethylpyridin-3-yl)methyl]-N-[(4R)-1-methyl-1H,4H,5H,6H-cyclopenta[d]imidazol-4-yl]-1H-pyrazole-4-carboxamide]
20.3	Cn1cnc2c1CC[C@H]2NC(=O)c1cnn(Cc2cc(F)c(N3CC4CC4C3)c(C#N)c2)c1 (stereo partly drawn) [Example 195, 1-[(4-{3-azabicyclo[3.1.0]hexan-3-yl}-3-cyano-5-fluorophenyl)methyl]-N-[(4R)-1-methyl-1H,4H,5H,6H-cyclopenta[d]imidazol-4-yl]-1H-pyrazole-4-carboxamide]
